# In PubChem BioAssay (NCI):
#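 Assay format: 96-well plates, 48-hour exposure. GI50 = concentration required for 50% inhibition of growth. At the TGI there is no net growth.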
# Assays:
# Experiment in all cases: inhibition of tumour cell growth, NCI panel, 48 h
# [1] = tested on: SF-268 CNS
# [2] = tested on: K-562 leukemia
# [3] = tested on: OVCAR-4 ovarian
# [4] = tested on: SW-620 colon
# [5] = tested on: HCT-116 colon
# [6] = tested on: UO-31 renal
# [7] = tested on: NCI/ADR-RES ovarian
# [8] = tested on: SR leukemia
# [9] = tested on: U251 CNS
# [10] = tested on: DU-145 prostate
# [11] = tested on: OVCAR-5 ovarian
# [12] = tested on: HCT-15 colon
# [13] = tested on: SK-OV-3 ovarian
# [14] = tested on: HCC-2998 colon
# [15] = tested on: NCI-H460 lung
# [16] = tested on: SF-295 CNS
# [17] = tested on: UACC-257 melanoma
# [18] = tested on: 786-0 renal
# [19] = tested on: OVCAR-8 ovarian
# [20] = tested on: HL-60(TB) leukemia
# [21] = tested on: EKVX NSCLC
# [22] = tested on: SNB-75 CNS
# [23] = tested on: HOP-62 NSCLC
# [24] = tested on: SN12C renal
# [25] = tested on: MDA-MB-231 breast
# [26] = tested on: KM12 colon
# [27] = tested on: SNB-19 CNS
# [28] = tested on: A549 NSCLC
# [29] = tested on: NCI-H522 lung
smiles,measurement,setting,value
O=C(CCCCCCNC(=O)C(O)(O)C(F)(F)F)Nc1ccc(-c2ccccc2)cc1,GI50,[1],5.98 µM
same,TGI,[1],14.3 µM
same,GI50,[2],1.58 µM
same,TGI,[2],> 33.2 µM
same,GI50,[3],11 µM
same,TGI,[3],> 33.2 µM
same,GI50,[4],1.8 µM
same,TGI,[4],7.24 µM
same,GI50,[5],1.27 µM
same,TGI,[5],7.08 µM
same,GI50,[6],3.11 µM
same,TGI,[6],8.88 µM
same,GI50,[7],3.99 µM
same,TGI,[7],12.4 µM
same,GI50,[8],1.43 µM
same,TGI,[8],> 33.2 µM
same,GI50,[9],3.62 µM
same,TGI,[9],10.9 µM
same,GI50,[10],4.78 µM
same,TGI,[10],32.7 µM
same,GI50,[11],1.62 µM
same,TGI,[11],9.14 µM
same,GI50,[12],4.73 µM
same,TGI,[12],9.8 µM
same,GI50,[13],4.31 µM
same,TGI,[13],21.6 µM
same,GI50,[14],4.91 µM
same,TGI,[14],9.88 µM
same,GI50,[15],3.24 µM
same,TGI,[15],11.4 µM
same,GI50,[16],2.53 µM
same,TGI,[16],7.49 µM
same,GI50,[17],4.67 µM
same,TGI,[17],14.5 µM
same,GI50,[18],4.34 µM
same,TGI,[18],11.7 µM
same,GI50,[19],3.25 µM
same,TGI,[19],> 33.2 µM
same,GI50,[20],2.64 µM
same,TGI,[20],> 33.2 µM
same,GI50,[21],5.26 µM
same,TGI,[21],> 33.2 µM
same,GI50,[22],2.92 µM
same,TGI,[22],> 33.2 µM
same,GI50,[23],4.76 µM
same,TGI,[23],29.4 µM
same,GI50,[24],4.21 µM
same,TGI,[24],16 µM
same,GI50,[25],2.84 µM
same,TGI,[25],10.7 µM
same,GI50,[26],3.84 µM
same,TGI,[26],9.23 µM
same,GI50,[27],4.63 µM
same,TGI,[27],10.3 µM
same,GI50,[28],6.04 µM
same,TGI,[28],28.8 µM
same,GI50,[29],3.81 µM
